Test results taken from PubChem BioAssay AID1259333 (Broad Institute, 2017).
Activity calls are given as the source filed them. No rule for the calls is given here; tested in parental BL2 cells.

Test: cell cytotoxicity, dose response, cytotoxicity control, CellTiter-Glo (AID 1259333);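 also: 0% = vehicle neutral controls and -100% = reference inhibitor positive controls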
Details: cytotoxicity, CellTiter-Glo ATP luminescence; at 10 µM (top of the series)

Row | Structure (SMILES) | activity change, negative = cytotoxicity
1 | COc1cccc(S(=O)(=O)N(C)C[C@@H]2OCc3ccccc3-c3c(n(C)c4ccccc34)C(=O)N([C@@H](C)CO)C[C@@H]2C)c1 | 3.23% (inactive)
2 | C[C@@H]1CN([C@@H](C)CO)C(=O)c2cc(C#CCc3ccccc3)cnc2O[C@@H]1CN(C)C(=O)C1CCOCC1 | 5.87% (inactive)
3 | Cc1ccccc1S(=O)(=O)N1C[C@@H]2N[C@H](C1)C2c1ccc(-c2cccc(C#N)c2)cc1 (stereo not given in full) | 54.5% (inactive)
4 | O=C(Nc1nnc(C2CC2)s1)C1CC(=O)N(c2ccc3c(c2)OCCO3)C1 (stereo not given) | 52.3% (inactive)
5 | CCc1cnc(N2[C@H](C#N)[C@@H](c3ccc(C#CC(C)C)cc3)[C@H]2CO)s1 | 10.7% (inactive)
6 | CCN(CC(=O)Nc1ccc(NC(C)=O)cc1)C(=O)C1CCCN(C(=O)c2ccc(Cl)cc2)C1 (stereo not given) | 33.9% (inactive)
7 | Cc1ccccc1C(=O)N1CCC(C(=O)Nc2nc3ccc(F)cc3s2)CC1 | 18.4% (inactive)
8 | C[C@H]1CN([C@@H](C)CO)C(=O)Cc2cc(NS(=O)(=O)c3cccs3)ccc2O[C@@H]1CN(C)Cc1ccc(Cl)c(Cl)c1 | 29.8% (inactive)
9 | Cc1ccc2nc(-c3cc(-c4ccccc4)no3)cn2c1 | 51.5% (inactive)
10 | CO[C@@H](CN(C)S(=O)(=O)c1ccc(Cl)cc1)[C@H](C)CN(Cc1ccccc1Cl)[C@@H](C)CO | 1.13% (inactive)
11 | CCCCc1nc2ccccc2[nH]1 | 13.9% (inactive)
12 | Cc1cc(C(=O)COC(=O)c2cccn2C)c(C)n1Cc1ccco1 | 23.8% (inactive)
13 | O=C(C1CCOCC1)N1CC(=O)N2[C@H](C1)[C@H](c1ccc(C#CCc3ccccc3)cc1)[C@@H]2CO | 95.5% (inactive)
14 | O=C(C1CCOCC1)N1CC(=O)N2[C@H](C1)[C@@H](c1ccc(C#CCc3ccccc3)cc1)[C@@H]2CO | 47.9% (inactive)
15 | CC(=O)Nc1nc2nc(-c3ccccc3)cc(-c3ccccc3)n2n1 | 47.9% (inactive)
16 | O=C(O)c1ccc(Nc2nc3c(s2)CCCC3)cc1 | 38.4% (inactive)
17 | CC(C)Cc1ccc(C(C)/C=C2/CCC(CN3CCCCC3)C2=O)cc1 (stereo not given) | 26.2% (inactive)

Row | Structure (SMILES) | activity change, negative = cytotoxicity
18 | C[C@H]1CN([C@@H](C)CO)C(=O)c2cccc(NC(=O)Nc3ccc(F)cc3)c2O[C@H]1CN(C)S(=O)(=O)c1ccc(Cl)cc1 | 55% (inactive)
19 | CC(=O)NC12CC3CC(C1)CC(C(=O)OCC(=O)c1ccc4c(c1)OCCO4)(C3)C2 | 20.6% (inactive)
20 | Cc1noc(C)c1S(=O)(=O)Nc1ccc2c(c1)C(=O)N([C@H](C)CO)C[C@@H](C)[C@H](CN(C)C(=O)Nc1cccc3ccccc13)OCCCC[C@@H](C)O2 | 33.4% (inactive)
21 | CCOC(=O)c1c(SCCN2CCCC2)n(-c2ccccc2)c(=S)n(-c2ccccc2)c1=O | 63.8% (inactive)
22 | CC(C)C1CC(N(C)C)=CC(=S)N1 (stereo not given) | 24.5% (inactive)
23 | CC12CN3CC(C)(CN(C1)C3c1ccc3c(c1)OCO3)C2=O (stereo not given) | 48.6% (inactive)
24 | CC(=O)OCC(=O)C1(O)CCC2C3CCC4=CC(=O)CCC4(C)C3(Cl)C(O)CC21C (stereo not given) | 25.5% (inactive)
25 | O=C(Nc1nc2ccccc2s1)c1ccc(OCC2CCCO2)cc1 (stereo not given) | 24.7% (inactive)
26 | Cc1cnc(NC(=O)c2ccc(OCC3CCCO3)cc2)s1 (stereo not given) | 5.83% (inactive)
27 | N#CC(C#N)=NNc1cccc(Cl)c1 | 69.4% (inactive)
28 | CSC1SCC2C(=O)N(C)C(C(C)C)C(=O)OCC(NC(=O)c3cnc4ccccc4n3)C(=O)NC(C)C(=O)N(C)C1C(=O)N(C)C(C(C)C)C(=O)OCC(NC(=O)c1cnc3ccccc3n1)C(=O)NC(C)C(=O)N2C (stereo not given) | 62.7% (inactive)
29 | Cc1ccc(N2CC(C(=O)Nc3nccs3)CC2=O)cc1Cl (stereo not given) | 22.3% (inactive)
30 | CC1=CC(=O)c2ccccc2C1=O | 36.2% (inactive)
31 | COc1cccc(S(=O)(=O)N(C)C[C@@H]2OCc3ccccc3-c3c(n(C)c4ccccc34)C(=O)N([C@H](C)CO)C[C@@H]2C)c1 | 41.8% (inactive)
32 | Cc1ccc(-c2ccccc2[C@H]2[C@@H](C#N)N(c3ncc(-c4ccccc4)s3)[C@@H]2CO)cc1 | 47.4% (inactive)
33 | N#Cc1ccc(-c2ccc3c(c2)[C@H]2[C@H](CCN2C(=O)C2CC2)[C@@H](CO)N3)cc1 | 66.9% (inactive)

Same assay, conditions: cytotoxicity, CellTiter-Glo ATP luminescence; at 11 µM (top of the series)

Row | Structure (SMILES) | activity change, negative = cytotoxicity
34 | N#C[C@@H]1[C@@H](c2ccccc2-c2ccc(F)cc2)[C@H](CO)N1C(=O)NC1CCCCC1 | 19.3% (inactive)
35 | COc1ccc(-c2ccc([C@H]3[C@@H](C#N)N(C(=O)c4cccc(F)c4)[C@H]3CO)cc2)cc1 | 24% (inactive)
